Source: US20110082098A1, “NOVOBIOCIN ANALOGUES AND TREATMENT OF POLYCYSTIC KIDNEY DISEASE” (UNIVERSITY OF KANSAS, priority 2009, published 2011)
Entries after “also recorded” stand apart in the source; their conditions may differ.

How the values were obtained:
murine pkd1-null cells = details: cited from earlier work
Pkd1−/− embryonic mice = Pkd1−/− embryonic mice with ADPKD; cited from earlier work
human ADPKD cells = experiment: Microcyst assay in collagen gel matrix; format: cell-based
Description: Microcyst assay was performed as described previously by Yamaguchi, T., et al., Calcium restores a normal proliferation phenotype in human polycystic kidney disease epithelial cells. J Am Soc Nephrol, 2006. 17(1): p. 178-87. Primary cultures of human ADPKD cells (4×10^3 cells/well) were dispersed within an ice-cold type I collagen matrix (Vitrogen; Collagen Corp., Palo Alto, Calif.) in wells of a 96-well culture plate. Warming the plate to 37° C. caused polymerization of the collagen, trapping the cells within the gel. A defined medium (DMEM/F12 with ITS, 5×10^−8M hydrocortisone, and 5×10^−5 M triiodothyronine) supplemented with 5 μM forskolin and 5 ng/ml EGF was added for 3 days to initiate cyst growth. Forskolin (FSK) is a small molecule agonist of adenylyl cyclase, the enzyme that makes cAMP. Thus, FSK treatment of cells increases the levels of intracellular cAMP. Fresh media containing EGF and forskolin plus 1 μM or 5 μM KU-174 were added for an additional 5-7 days. […] Gels containing cysts were fixed in 1% formaldehyde and cyst diameters were measured using a morphometric analysis system. Outer diameters of cross-sectional images of spherical cysts with distinct lumens were measured using an inverted microscope with a digital camera and video analysis software. The total surface area (SA) of the cysts within each well was calculated from the individual cyst diameters (cysts≧100 μm). KU-174 inhibits microcyst formation by ADPKD cells in a collagen gel matrix.

ERK 1/2 = experiment: Inhibition of p-ERK in EGF stimulated ADPKD cells by Western blot; format: cell-based, human; details: for decrease in P-Erk (phosphorylation of ERK 1/2): EGF-stimulated ADPKD cells
Description: (§1) Human ADPKD cells were plated at a density of 1×10^5 cells per well in medium containing 1% FBS in a 6-well plate. Cells were serum-starved for 24 hours and treated with 25 ng/ml EGF to stimulate cell proliferation, then treated with increasing concentrations of KU-174. As a control for inhibition of the mTOR pathway, ADPKD cells were stimulated by EGF and treated with Rapamycin or LY294002. After 24 or 48 hours, cytoplasmic protein extracts were prepared by lysing cells in ice-cold lysis buffer (10 mM Tris-Cl pH 7.5, 150 mM NaCl, 2 mM EDTA pH 8.0, 1% Triton X-100, 0.5% NP-40, 25 mM glycerol 2-phosphate, 1 mM sodium orthovanadate, 1 mM phenylmethylsulfonyl fluoride, and 0.1% v/v Sigma protease inhibitor cocktail). Nuclei and other Triton-insoluble components were removed by high speed centrifugation. Protein concentration was measured using the Pierce BCA assay kit. 20 μg total protein was boiled with SDS sample buffer and fractionated on 7.5, 10 or 12.5% SDS-PAGE gels. Proteins were transferred to PVDF membranes and non-specific binding blocked with 5% powdered milk in TBS-T (10 mM Tris-Cl pH 7.5, 150 mM NaCl, and 0.1% Tween 20) for 1 h at room temperature. Blocked membranes were incubated with primary antibodies in 5% powdered milk or 5% BSA (for phospho-proteins) in TBS-T overnight at 4° C. Membranes were then washed three times with TBS-T and incubated with alkaline phosphatase-conjugated secondary antibodies in 5% milk in TBS-T for 30 min at room temperature. The membranes were washed three times with TBS-T, and protein bands were visualized using the CDP-star detection reagent (GE healthcare). Intensity was detected and quantitatively analyzed by the Fluor-S MAX multi-imager system (Bio-Rad).

[1] = tested on: Pkd1+/− mouse metanephric kidneys; experiment: Metanephric organ culture; details: embryonic day 15.5 kidneys, 100 μM cAMP, 10 μM KU-174, four days
Excerpt: Pkd1^m1Bei mice were obtained from the Mutant Mouse Regional Resource Center (University of North Carolina, Chapel Hill, N.C.) and were stabilized onto a C57BL/6 background (>10 backcrosses). This mouse has a point mutation (T to G at 9248 bp) that causes an M to R substitution that affects the first transmembrane domain of polycystin-1 as described by Herron, B. J., et al., Efficient generation and mapping of recessive developmental mutations using ENU mutagenesis. Nat Genet, 2002. 30(2): p. 185-9.
Mouse metanephric kidneys were cultured according to methods described in Magenheimer, B. S., et al., Early embryonic renal tubules of wild-type and polycystic kidney disease kidneys respond to cAMP stimulation with cystic fibrosis transmembrane conductance regulator/Na(+),K(+),2Cl(−) Co-transporter-dependent cystic dilation. J Am Soc Nephrol, 2006. 17(12): p. 3424-37. Metanephroi were dissected from Pkd1+/− embryonic mice and placed on transparent Falcon […] cell culture inserts. […] Upon culturing (day 0) and approximately 24 h later (day 1) and each day after (days 2 to 4), kidneys were photographed using a 2× or 4× objective, and the images were acquired and analyzed using the analySIS imaging program (Soft Imaging System, Munster, Germany). […]

mTOR pathway = experiment: Inhibition of mTOR pathway in EGF stimulated ADPKD cells by Western blot; format: cell-based, human
Description: as §1
Human ADPKD cells were plated at a density of 1×10^5 cells per well in medium containing 1% FBS in a 6-well plate. Cells were serum-starved for 24 hours and treated with 25 ng/ml EGF to stimulate cell proliferation, then treated with increasing concentrations of KU-174. As a control for inhibition of the mTOR pathway, ADPKD cells were stimulated by EGF and treated with Rapamycin or LY294002, (an inhibitor of phosphoinositide-3-kinases, PI3Ks). After 24 or 48 hours, cells were lysed and 20 μg total cell lysate analyzed by Western blotting. Blots were probed with antibodies against p-Akt (S473), Akt, p-TSC2 (S939), TSC2, p-mTOR (S2448), mTOR, p-S6K (T412 and T389; phospho-p70 S6 Kinase phosphorylated at T389 or T412) and S6K (p70 S6 kinase; p70S6K1). […] In the 1 μM KU-174 treated cell lysates, p-Akt was decreased by 64%, p-mTOR by 56%, and p-S6K isoforms p85 and p70 by 75% compared with control EGF treated cells and normalized with respect to the corresponding total protein (n=3). There was no change in p-TSC2 levels. […] The figures represent results from independent experiments using primary human ADPKD cells from three different kidneys.

[2] = tested on: Hsp90 client proteins CFTR, C-Raf, cdk4, ErbB2 and Akt; experiment: Hsp90 client protein levels in EGF stimulated human ADPKD cells by Western blot; format: cell-based
Description: as §1
Proteins from 20 μg total cell lysate were analyzed by Western blotting. Blots were probed with antibodies against Hsp90 and client proteins CFTR, C-Raf, cdk4, ErbB2 and Akt. GAPDH served as the internal control.

[3] = tested on: Human ADPKD cyst-lining epithelial cells; experiment: Cell proliferation assay (Promega Cell Titer 96 MTT); format: cell-based; details: 0.1, 0.5, 1 uM KU-174 for 72 h
Description: Primary cultures of human ADPKD cyst-lining epithelial cells were established as described in Yamaguchi, T., et al., Calcium restores a normal proliferation phenotype in human polycystic kidney disease epithelial cells. J Am Soc Nephrol, 2006. 17(1): p. 178-87. Cystic tissue from ADPKD kidneys were minced and digested overnight in DMEM/F12 (1:1) mixture that contained 220 IU/ml type IV collagenase and 100 IU/ml penicillin G and 0.1 mg/ml streptomycin (P/S) (13). Collagenase digestion was stopped by the addition of FBS. […]
The novobiocin analog KU-174 was studied to determine the effect on cAMP and EGF-stimulated proliferation of ADPKD cyst-lining epithelial cells. Cell proliferation was determined by the Promega Cell Titer 96 MTT assay method as described in Yamaguchi, T., et al., Calcium restores a normal proliferation phenotype in human polycystic kidney disease epithelial cells. […] After 72 hours of treatment, cell proliferation was measured by adding the MTT assay reagent and stopping the reaction four hours later. Absorbance was read on a spectrophotometer at 570 nm. Optical densities were measured using a spectrophotometer. In each group, results were expressed as a percentage of the control group (not treated with KU-174).

[4] = 48 h, 1 μM KU-174, compared to control EGF treated cells

SMILES: CC(C)[C@]12O[C@H]1[C@@H]1O[C@]13[C@]1(O[C@H]1C[C@H]1C4=C(CC[C@@]13C)C(=O)OC4)[C@@H]2O [Triptolide]
- cell growth (murine pkd1-null cells): cause cell growth arrest
- cyst formation (Pkd1−/− embryonic mice): inhibit cyst formation

SMILES: COc1cccc(-c2cc(C(=O)Nc3cc4ccc(O[C@@H]5OC(C)(C)[C@H](OC)[C@@H](O)[C@H]5O)c(OC)c4oc3=O)ccc2OC)c1 [KU-174, N-(7-((2S,3R,4S,5R)-3,4-dihydroxy-5-methoxy-6,6-dimethyltetrahydro-2H-pyran-2-yloxy)-8-methoxy-2-oxo-2H-chromen-3-yl)-3′,6-dimethoxybiphenyl-3-carboxamide]
- inhibition in cyst growth (total cyst surface area per well) (human ADPKD cells; 1 μM KU-174, EGF and forskolin, p<0.01): significant inhibition
- inhibition of cyst-formation induced by EGF and forskolin (human ADPKD cells; 1 μM KU-174, n=6): more than 3 fold
- cyst formation (human ADPKD cells; 5 μM KU-174, EGF and forskolin, p<0.01): completely eliminated
- microcyst formation by ADPKD cells in a collagen gel matrix (human ADPKD cells; EGF and forskolin, 1 μM or 5 μM KU-174): dose-dependent inhibition; also recorded: reduces; also recorded: inhibits
- decrease in P-Erk (phosphorylation of ERK 1/2) (ERK 1/2; 0.5 μM KU-174, 48 h): 70%
- total Erk levels (ERK 1/2; 0.5 μM and 1 μM KU-174, EGF-stimulated ADPKD cells): remained virtually unchanged
- decrease in P-Erk (phosphorylation of ERK 1/2) (ERK 1/2; 1 μM KU-174, 48 h): 80%
- inhibition of p-ERK (ERK 1/2; increasing concentrations of KU-174, EGF-stimulated ADPKD cells): dose-dependent inhibition
- cyst burden / cyst formation in cAMP-treated metanephric kidneys [1]: reduces the cyst burden; also recorded: reduction in cyst burden; also recorded: reduced cyst formation
- p-S6K (mTOR pathway; 24 h, 1 μM KU-174): slight decrease
- change in phosphoproteins (P-mTOR, P-Akt, P-TSC2, P-S6K) (mTOR pathway; 24 h of treatment, 50 nM to 1 μM KU-174, EGF-stimulated ADPKD cells): no change
- decrease in P-Akt (S473) (mTOR pathway; [4]): 64%
- decrease in P-S6K (isoforms p85 and p70) (mTOR pathway; [4]): 75%
- decrease in P-mTOR (S2448) (mTOR pathway; [4]): 56%
- decreasing the phosphoproteins (mTOR pathway; 48 h, both 0.5 and 1 μM KU-174): effective
- P-TSC2 (S939) levels (mTOR pathway; EGF-stimulated ADPKD cells, KU-174 up to 1 μM, 48 h): no change
- total Akt levels (mTOR pathway; at the concentrations examined (up to 1 μM KU-174)): did not appear to decrease
- total levels of C-Raf ([2]; 24 h, 1 μM KU-174): decreased
- total levels of CFTR ([2]; 24 h, 1 μM KU-174): decreased
- all the client proteins examined (CFTR, C-Raf, cdk4, ErbB2) ([2]; 48 h, both 0.5 and 1 μM KU-174): effective in decreasing
- levels of the Hsp90 client proteins CFTR, ErbB2, c-Raf and Cdk4 ([2]; dose and time-dependent manner, ADPKD cells): decreases
- proliferation of EGF-stimulated ADPKD cyst-lining epithelial cells (MTT assay) ([3]; 25 ng/ml EGF): dose-dependent decrease; also recorded: significantly inhibited
- proliferation of cAMP-stimulated ADPKD cyst-lining epithelial cells (MTT assay) ([3]; 100 μM cAMP): dose-dependent decrease; also recorded: significantly inhibited
